Experiments:
[1] = cited from earlier work
ALS = conditions: approved by the FDA in 1995; cited from earlier work
[2] = Tolerability of high body water enrichments of 2H2O; assay type: in vivo, human; conditions: 1-10% of total body water labeled, maintained for weeks or months; humans (>100 persons) and experimental animals
Text: Relatively high body water enrichments of ^2H2O (e.g., 1-10% of the total body water is labeled) may be achieved relatively inexpensively using the techniques of the invention. […] This finding in a large number of human subjects (>100 persons) is contrary to previous concerns about vestibular toxicities at high doses of ^2H2O. One of the Applicants has discovered that as long as rapid changes in body water enrichment are prevented (e.g., by initial administration in small, divided doses), high body water enrichments of ^2H2O can be maintained with no toxicities. For example, the low expense of commercially available ^2H2O allows long-term maintenance of enrichments in the 1-5% range at relatively low expense (e.g., calculations reveal a lower cost for 2 months labeling at 2% ^2H2O enrichment, and thus 7-8% enrichment in the alanine precursor pool, than for 12 hours labeling of ^2H-leucine at 10% free leucine enrichment, and thus 7-8% enrichment in leucine precursor pool for that period).

[3] = system: BDNF (brain-derived neurotrophic factor) transport rate; conditions: PD patients
Procedure: Statistical significance was assessed by 1-way ANOVA with Tukey post-hoc testing. A P value less than 0.05 was considered statistically significant (* P<0.05). […] Solid lines indicate regression; dashed lines indicate 95% confidence intervals. The statistical test that generated both the r^2 and P values was a linear regression (mean±SD were generated by technical replicates of repeated sample preparations and analyses).
The study group consisted of symptomatic PD patients, all on standard anti-PD medications, and 6 non-PD volunteers. […] Unified PD Rating Scale, PART III, and Hoehn and Yahr scores were obtained for each subject. […] Compliance to the experimental protocol was monitored by the clinical staff through collection of blood plasma samples for body water enrichment. […]
Purified cargo proteins were hydrolyzed by treatment with 6N HCl for 16 hours at 110° C. Protein derived amino acids were derivatized to pentafluorobenzyl derivatives, and ^2H incorporation in alanine released from total vesicular proteins was measured by GC/MS, as described elsewhere (Busch R, et al., Biochim Biophys Acta., 1760(5):730-44 (2006)). ^2H enrichment was calculated as the percent increase over the natural abundance of alanine derivative present as the (M+1) mass isotopomer (EM1) (Busch R, et al., Biochim Biophys Acta., 1760(5):730-44 (2006)). […]

COc1ccc2c(c1OC)C(=O)O[C@@H]2[C@H]1c2c(cc3c(c2OC)OCO3)CCN1C [Noscapine]
half-life in CNS tissue ([1]; CNS tissue (brain and spinal cord) and PNS): long half-life | blood brain barrier penetration ([1]; in vivo): penetrates the blood brain barrier

Nc1nc2ccc(OC(F)(F)F)cc2s1 [Riluzole]
disease progression (ALS): only delays disease progression modestly

[2H]O[2H] [^2H2O]
toxicity at high body water enrichment [2]: without any evidence of toxicity

C#CCN[C@@H]1CCc2ccccc21 [rasagiline]
deficits in transport rates of BDNF in CSF, compared to patients not treated with Azilect ([3]; rasagiline 1 mg/day, 1-way ANOVA with Tukey post-hoc, * P<0.05, FIG. 7 panel A): reduced deficits in transport rates of BDNF | correlation between reduced delays in rates of BDNF transport and duration of treatment ([3]; duration of treatment in years prior to LP, linear regression, FIG. 7 panel B): strong correlation
